Test systems include RXF 393; SN12C; K562; CCRF-CEM; NCI-H460; M14; HT-29; SK-OV-3; EKVX; Malme-3M; MDA-MB-435; HCT-116; HOP-62; SF-539; SK-MEL-2; UACC-62; A549; Hs-578T.
Holding throughout (assay): NCI-60 cell line screen, 48 h

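All cell lines were grown in 96-well plates and treated with compound for 48 hours. Here, GI50 denotes the concentration required for 50% inhibition of growth.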 Calls of active or inactive are those of the source. No stated cut-off is given here; in the data, active = GI50 up to about 1.1 µM and inactive = higher. Bounds are passed on as bounds.

With `Cc1c(Cl)c(C)c(Cl)c(O)c1Cl`, the GI50 was 26 µM (inactive) in the assay on RXF 393; 24.2 µM (inactive) in the assay with SN12C; 17.5 µM (inactive) with K562; 33.7 µM (inactive) with CCRF-CEM; 24.7 µM (inactive) in the assay with NCI-H460; 20.5 µM (inactive) in the assay with M14. In addition, the GI50 in the assay on HT-29 is 48.5 µM (inactive); with SK-OV-3 it was 26.5 µM (inactive); in the assay on EKVX, 26.4 µM (inactive); in the assay with Malme-3M, 15.2 µM (inactive); in the assay on MDA-MB-435, 18.9 µM (inactive); with HCT-116, 18.2 µM (inactive). Besides, the GI50 in the assay with HOP-62 was 31.9 µM (inactive); in the assay with SF-539 it was 29 µM (inactive); in the assay on SK-MEL-2, 13.2 µM (inactive); in the assay on UACC-62, 16.7 µM (inactive); with A549, 21.2 µM (inactive); with Hs-578T, 19.9 µM (inactive).
As for `CCc1n[nH]c(=O)n1/N=C/c1ccc(C)cc1`, the GI50 in the assay with RXF 393 is > 100 µM (inactive); in the assay on SN12C it was > 100 µM (inactive); with K562 it was > 100 µM (inactive); with CCRF-CEM, > 100 µM (inactive); in the assay with NCI-H460, > 100 µM (inactive); in the assay on HT-29, 54.3 µM (inactive). Also, the GI50 with SK-OV-3 was > 100 µM (inactive); with EKVX, 3.41 µM (inactive); with Malme-3M, > 100 µM (inactive); in the assay with MDA-MB-435, > 100 µM (inactive); with HCT-116, 97.9 µM (inactive); in the assay on HOP-62, 37.7 µM (inactive). The GI50 in the assay with SF-539 is > 100 µM (inactive); in the assay on SK-MEL-2, > 100 µM (inactive); in the assay on UACC-62, 60.7 µM (inactive); in the assay with A549, > 100 µM (inactive); in the assay with Hs-578T, 3.84 µM (inactive).
Take `Oc1cc(-c2ccccc2)nc2ncccc12`: the GI50 is 0.106 µM (active) in the assay on RXF 393; 0.268 µM (active) in the assay with SN12C; 0.0336 µM (active) in the assay on K562; 0.0867 µM (active) in the assay on CCRF-CEM; 0.12 µM (active) in the assay with NCI-H460; 0.0853 µM (active) in the assay on M14. Besides, the GI50 with HT-29 is 0.0646 µM (active); in the assay on SK-OV-3, 0.126 µM (active); with EKVX it was > 100 µM (inactive); with Malme-3M, 0.091 µM (active); in the assay with MDA-MB-435 it was 0.0133 µM (active); with HCT-116, 0.0719 µM (active). In addition, the GI50 is 1.15 µM (inactive) with HOP-62; 0.109 µM (active) in the assay with SF-539; 0.0303 µM (active) with SK-MEL-2; 0.0396 µM (active) with UACC-62; 0.385 µM (active) in the assay with A549; 0.16 µM (active) with Hs-578T.
Consider `CC1(C)[C@@H](Cn2ccc(=O)[nH]c2=O)CC[C@@]1(C)CO`, for which the GI50 in the assay with RXF 393 is 59.2 µM (inactive); in the assay on SN12C, > 100 µM (inactive); with K562, > 100 µM (inactive); in the assay with CCRF-CEM, > 100 µM (inactive); with M14, > 100 µM (inactive); with SK-OV-3 it was > 100 µM (inactive). For the same molecule, the GI50 with EKVX, with MDA-MB-435, in the assay with HCT-116, with HOP-62, in the assay with SK-MEL-2 and with UACC-62 was > 100 µM (inactive) in each case. For the same molecule, the GI50 in the assay on A549 and with Hs-578T was > 100 µM (inactive) throughout.
Take `CCOC(=O)CC(=O)Nc1c(C(=O)OCC)sc2nc(SC)nc(Nc3ccc(OC)c(OC)c3)c12`: the GI50 with RXF 393 is 10.7 µM (inactive); with SN12C, 60.3 µM (inactive); in the assay with CCRF-CEM, > 100 µM (inactive); in the assay on M14, > 100 µM (inactive); with HT-29, 60.1 µM (inactive); in the assay with EKVX, > 100 µM (inactive). Besides, the GI50 with Malme-3M was > 100 µM (inactive); with MDA-MB-435, > 100 µM (inactive); with HCT-116 it was 39.4 µM (inactive); in the assay with SF-539, 9.86 µM (inactive); in the assay on SK-MEL-2, 25.6 µM (inactive); with UACC-62 it was 24.6 µM (inactive). Further, the GI50 in the assay on A549 was 0.36 µM (active); in the assay with Hs-578T, 7.73 µM (inactive).
